Results reported in patent US20240165244A1 (Prelude Therapeutics Incorporated, priority 2022, published 2024).

Assays:
SMARCA2 = target: T1, SMARCA2 (Homo sapiens, UniProt P51531); assay: SMARCA2 HiBiT degradation assay in HeLa cells; assay type: cell-based; settings: 18 hours, highest concentration 10 μM
T1 construct: SMARCA2-HiBiT knock-in Hela monoclonal cell (CS302366); host or cells: HeLa monoclonal cells with heterozygous HiBiT knock-in at the endogenous SMARCA2 locus
In short: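 Degradation was read as Nano-Glo HiBiT lytic luminescence (30-60 min, RT) and fitted to curves. Compounds in 3-fold dilutions up to 10 μM were applied for 18 h at 37 °C. Cells were 2500/well monoclonal HeLa with a heterozygous C-terminal HiBiT tag on SMARCA2.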

SMARCA4 = target: T2, SMARCA4 (Homo sapiens, UniProt P51532); assay: SMARCA4 HiBiT degradation assay in HeLa cells; assay type: cell-based; settings: 18 hours, highest concentration 10 μM
T2 construct: SMARCA4-HiBiT knock-in Hela monoclonal cell (CS3023226); host or cells: HeLa monoclonal cells with heterozygous HiBiT knock-in at the endogenous SMARCA4 locus
T2 sequence (P51532 whole entry): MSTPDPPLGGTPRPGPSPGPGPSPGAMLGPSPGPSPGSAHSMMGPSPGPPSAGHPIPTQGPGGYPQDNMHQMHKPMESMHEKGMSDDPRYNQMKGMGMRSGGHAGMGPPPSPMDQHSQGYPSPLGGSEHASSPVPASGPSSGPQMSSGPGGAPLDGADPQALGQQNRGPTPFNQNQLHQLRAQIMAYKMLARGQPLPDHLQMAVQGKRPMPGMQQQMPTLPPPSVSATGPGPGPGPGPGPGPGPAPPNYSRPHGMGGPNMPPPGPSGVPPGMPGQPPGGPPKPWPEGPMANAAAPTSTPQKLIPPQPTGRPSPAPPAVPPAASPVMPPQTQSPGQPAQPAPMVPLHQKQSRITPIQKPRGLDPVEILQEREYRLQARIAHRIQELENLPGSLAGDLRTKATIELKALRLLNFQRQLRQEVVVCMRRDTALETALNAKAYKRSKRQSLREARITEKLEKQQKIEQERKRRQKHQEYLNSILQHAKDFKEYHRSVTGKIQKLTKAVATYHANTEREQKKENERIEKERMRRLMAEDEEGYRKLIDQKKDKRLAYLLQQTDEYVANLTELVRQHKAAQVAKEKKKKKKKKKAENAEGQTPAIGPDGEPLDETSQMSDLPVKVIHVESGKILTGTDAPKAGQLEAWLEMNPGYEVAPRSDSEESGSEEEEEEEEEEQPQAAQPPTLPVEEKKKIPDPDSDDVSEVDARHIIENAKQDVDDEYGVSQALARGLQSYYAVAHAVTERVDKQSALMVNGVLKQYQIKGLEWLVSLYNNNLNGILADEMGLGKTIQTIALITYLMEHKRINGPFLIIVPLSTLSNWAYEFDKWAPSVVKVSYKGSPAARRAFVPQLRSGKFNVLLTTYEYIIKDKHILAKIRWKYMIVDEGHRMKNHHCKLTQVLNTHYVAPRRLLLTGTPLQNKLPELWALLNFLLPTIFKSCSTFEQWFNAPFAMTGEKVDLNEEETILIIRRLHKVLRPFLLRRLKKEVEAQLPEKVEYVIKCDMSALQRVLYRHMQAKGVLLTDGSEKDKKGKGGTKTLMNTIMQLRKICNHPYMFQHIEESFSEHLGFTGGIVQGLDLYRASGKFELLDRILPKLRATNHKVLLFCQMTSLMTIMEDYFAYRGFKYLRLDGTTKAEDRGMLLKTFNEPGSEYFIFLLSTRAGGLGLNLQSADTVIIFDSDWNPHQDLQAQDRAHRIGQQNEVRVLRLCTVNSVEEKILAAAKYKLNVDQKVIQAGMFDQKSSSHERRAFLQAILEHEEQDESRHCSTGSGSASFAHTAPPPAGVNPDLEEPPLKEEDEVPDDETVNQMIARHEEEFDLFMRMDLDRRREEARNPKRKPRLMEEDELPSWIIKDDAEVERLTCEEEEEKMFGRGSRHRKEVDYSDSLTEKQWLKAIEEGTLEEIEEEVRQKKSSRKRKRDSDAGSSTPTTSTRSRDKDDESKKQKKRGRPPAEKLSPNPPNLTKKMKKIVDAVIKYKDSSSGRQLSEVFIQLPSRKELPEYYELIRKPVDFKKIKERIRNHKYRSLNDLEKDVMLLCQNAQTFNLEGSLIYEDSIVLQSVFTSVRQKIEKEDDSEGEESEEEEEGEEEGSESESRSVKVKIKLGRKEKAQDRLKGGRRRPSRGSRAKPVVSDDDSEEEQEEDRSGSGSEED
In short: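 HeLa monoclonal cells with HiBiT knocked into SMARCA4 were seeded at 2500 cells/well, dosed with compound and incubated 18 hours at 37° C. HiBiT signal reported remaining SMARCA4 protein, and values came from curve fitting.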

T1 sequence (P51531 whole entry): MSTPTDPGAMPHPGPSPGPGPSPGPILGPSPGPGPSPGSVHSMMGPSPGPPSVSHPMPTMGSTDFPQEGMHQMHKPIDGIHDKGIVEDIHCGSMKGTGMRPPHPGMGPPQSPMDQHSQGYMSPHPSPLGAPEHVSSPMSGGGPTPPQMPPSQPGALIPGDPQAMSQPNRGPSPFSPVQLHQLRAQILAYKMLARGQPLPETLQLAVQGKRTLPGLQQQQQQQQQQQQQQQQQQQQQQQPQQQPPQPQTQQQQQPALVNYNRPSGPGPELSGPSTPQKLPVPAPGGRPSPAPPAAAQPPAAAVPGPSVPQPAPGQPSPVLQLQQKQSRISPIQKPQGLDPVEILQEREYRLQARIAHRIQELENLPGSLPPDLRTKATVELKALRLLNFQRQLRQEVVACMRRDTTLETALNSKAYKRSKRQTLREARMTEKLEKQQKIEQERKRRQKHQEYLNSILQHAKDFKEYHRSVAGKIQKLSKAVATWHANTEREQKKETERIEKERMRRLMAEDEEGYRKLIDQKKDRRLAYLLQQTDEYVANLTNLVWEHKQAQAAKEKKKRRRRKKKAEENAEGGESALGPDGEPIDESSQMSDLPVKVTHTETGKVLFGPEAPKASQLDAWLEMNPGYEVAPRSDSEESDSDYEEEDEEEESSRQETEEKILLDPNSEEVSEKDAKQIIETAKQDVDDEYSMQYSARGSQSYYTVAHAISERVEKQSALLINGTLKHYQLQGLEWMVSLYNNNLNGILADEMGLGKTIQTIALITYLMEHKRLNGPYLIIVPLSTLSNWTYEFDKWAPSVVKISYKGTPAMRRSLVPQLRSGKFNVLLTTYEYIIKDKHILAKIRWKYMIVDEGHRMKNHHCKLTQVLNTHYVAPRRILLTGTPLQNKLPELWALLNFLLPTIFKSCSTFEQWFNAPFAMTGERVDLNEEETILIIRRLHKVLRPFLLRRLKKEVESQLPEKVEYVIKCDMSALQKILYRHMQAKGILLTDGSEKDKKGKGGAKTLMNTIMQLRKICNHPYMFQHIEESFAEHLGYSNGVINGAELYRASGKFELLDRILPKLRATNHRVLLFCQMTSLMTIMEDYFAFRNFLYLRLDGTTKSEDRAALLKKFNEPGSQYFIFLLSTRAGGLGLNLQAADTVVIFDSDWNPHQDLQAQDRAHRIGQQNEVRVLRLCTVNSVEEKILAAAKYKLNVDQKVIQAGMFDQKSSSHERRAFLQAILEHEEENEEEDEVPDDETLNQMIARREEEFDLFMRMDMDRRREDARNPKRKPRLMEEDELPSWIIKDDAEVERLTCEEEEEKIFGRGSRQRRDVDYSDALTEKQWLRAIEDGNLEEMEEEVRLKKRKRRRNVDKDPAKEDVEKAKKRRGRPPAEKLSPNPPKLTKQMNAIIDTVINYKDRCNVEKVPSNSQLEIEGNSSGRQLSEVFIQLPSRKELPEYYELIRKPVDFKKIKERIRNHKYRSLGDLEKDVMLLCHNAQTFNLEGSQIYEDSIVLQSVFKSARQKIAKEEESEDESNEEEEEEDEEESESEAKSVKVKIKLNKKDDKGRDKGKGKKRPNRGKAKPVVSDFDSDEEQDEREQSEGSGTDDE

SMILES	DC50 (SMARCA2)	Dmax (SMARCA2)	DC50 (SMARCA4)	Dmax (SMARCA4)
CC(C)c1nc(O[C@H]2CN3c4cc(-c5cccc(F)c5O)nnc4NC[C@]3(C(F)F)C2)ncc1CN1CCN(c2ccc3c(c2)C(=O)N(C2CCC(=O)NC2=O)C3)CC1 (stereo partly drawn) [Example 50, 3-(6-(4-((2-(((6aS,8R)-6a-(difluoromethyl)-2-(3-fluoro-2-hydroxyphenyl)-5,6,6a,7,8,9-hexahydropyrrolo [1′,2′:4,5]pyrazino[2,3-c]pyridazin-8-yl)oxy)-4-isopropylpyrimidin-5-yl)methyl)piperazin-1-yl)-1-oxoisoindolin-2-yl)piperidine-2,6-dione]	< 100 nM	> 75%	< 100 nM	50 to 75%
Cc1nc(O[C@@H]2C[C@@H]3CNc4nnc(-c5cc(F)cc(F)c5O)cc4N3C2)ccc1CN1CCN(c2ccc3c(c2)C(=O)N([C@H]2CCC(=O)NC2=O)C3)CC1 [Example 30, (S)-3-(6-(4-((6-(((6aR,8R)-2-(3,5-difluoro-2-hydroxyphenyl)-5,6,6a,7,8,9-hexahydropyrrolo[1′,2′:4,5]pyrazino[2,3-c]pyridazin-8-yl)oxy)-2-methylpyridin-3-yl)methyl)piperazin-1-yl)-1-oxoisoindolin-2-yl)piperidine-2,6-dione]	< 100 nM	> 75%	< 100 nM	> 75%
O=C1CCC(N2Cc3ccc(N4CCC(Cn5cc(O[C@@H]6C[C@@H]7CNc8nnc(-c9cc(F)cc(F)c9O)cc8N7C6)cn5)CC4)cc3C2=O)C(=O)N1 (stereo partly drawn) [Example 39, 3-(6-(4-((4-(((6aR,8R)-2-(3,5-difluoro-2-hydroxyphenyl)-5,6,6a,7,8,9-hexahydropyrrolo[1′,2′:4,5]pyrazino[2,3-c]pyridazin-8-yl)oxy)-1H-pyrazol-1-yl)methyl)piperidin-1-yl)-1-oxoisoindolin-2-yl)piperidine-2,6-dione]	> 1000 nM		> 1000 nM	
Cc1c(O[C@H]2CN3c4cc(-c5cccc(F)c5O)nnc4NC[C@@]3(C(F)F)C2)cnc(CN2CCN(c3ccc4c(c3)C(=O)N([C@H]3CCC(=O)NC3=O)C4)CC2)c1F [Example 45, (S)-3-(6-(4-((5-(((6aR,8R)-6a-(difluoromethyl)-2-(3-fluoro-2-hydroxyphenyl)-5,6,6a,7,8,9-hexahydropyrrolo[1′,2′:4,5]pyrazino[2,3-c]pyridazin-8-yl)oxy)-3-fluoro-4-methylpyridin-2-yl)methyl)piperazin-t-yl)-1-oxoisoindolin-2-yl)piperidine-2,6-dione]	< 100 nM	50 to 75%	> 1000 nM	< 50%
C[C@]12CNc3nnc(-c4cccc(F)c4O)cc3N1C[C@H](Oc1cc(C#N)c(CN3CCN(c4ccc5c(c4)C(=O)N([C@H]4CCC(=O)NC4=O)C5)CC3)cn1)C2 [Example 76, 5-((4-(2-((S)-2,6-dioxopiperidin-3-yl)-3-oxoisoindolin-5-yl)piperazin-1-yl)methyl)-2-(((6aS,8R)-2-(3-fluoro-2-hydroxyphenyl)-6a-methyl-5,6,6a,7,8,9-hexahydropyrrolo[1′,2′:4,5]pyrazino[2,3-c]pyridazin-8-yl)oxy)isonicotinonitrile]	< 100 nM	> 75%	< 100 nM	> 75%
CC[C@]12CNc3nnc(-c4cccc(F)c4O)cc3N1C[C@H](Oc1cnc(CN3CCN(c4ccc5c(c4)CN([C@H]4CCC(=O)NC4=O)C5=O)CC3)c(C(F)(F)F)c1)C2 [Example 73, (S)-3-(5-(4-((5-(((6aS,8R)-6a-ethyl-2-(3-fluoro-2-hydroxyphenyl)-5,6,6a,7,8,9-hexahydropyrrolo[1′,2′:4,5]pyrazino[2,3-c]pyridazin-8-yl)oxy)-3-(trifluoromethyl)pyridin-2-yl)methyl)piperazin-1-yl)-1-oxoisoindolin-2-yl)piperidine-2,6-dione]	< 100 nM	> 75%	< 100 nM	50 to 75%
